Source: patent US6440999B1, “Intimal thickening inhibitory agent” (Chugai Seiyaku Kabushiki Kaisha, priority 1995, dated 2002)

System: A7r5 cells derived from the aorta of a rat
Test: Inhibition of serum- or PDGF-stimulated proliferation of vascular smooth muscle cells, [3H]-thymidine uptake
Type: cell-based
Protocol: In order to assess the inhibitory effect of a compound of the present invention on serum- or PDGF-stimulated proliferation of vascular smooth muscle cells in vitro, the compound obtained in Example 36 was tested using A7r5 cells derived from the aorta of a rat (ATCC-CRL-1444). Further, the effect was compared with that of α-tocopherol which was reported to have an inhibitory effect on proliferation of vascular smooth muscle cells (see J. Biol. Chem., 266, pp. 6188-6194 (1991)).
Using DMEM medium containing 10% FBS, the cells were placed on 96-well microtiter plates with 5×10^3 cells/0.2 ml/well and then incubated. The medium was exchanged for 2% FBS-containing DMEM medium on the third day and then for 0.2% FBS-containing DMEM medium on the fourth day from the start of the incubation. After 48-hour incubation in the 0.2% FBS-containing DMEM medium, the medium was removed, 0.2 ml of DMEM medium and the test compound were added, and the cells were stimulated with serum (2% FBS) or PDGF (PDGF-BB: human origin, available from Becton Dickinson Labware) (4 ng/ml) to proliferate. The test compound was added to the wells in the form of a solution or suspension in ethanol in amount of 1 μl well to final compound concentrations indicated in Table 2 below and the resultant ethanol concentration of 0.5% in each well. Eight hours after the stimulation, hydroxyurea was added to a final concentration of 1.5 mM to synchronize the cell cycle strictly. After additional 14-hour incubation, the medium containing hydroxyurea was removed and the cells were washed, and DMEM medium, the test compound and the proliferation stimulator were added thereto again. Further, [^3H]-thymidine (1 μCi/well; […]; available from NEN Research) was added. The [^3H]-thymidine uptake in 5 hours was measured as an indication of cell proliferation.

CCCCCC1(CCCCC)Cc2c(cc(C(C)(C)C)c(O)c2C(C)(C)C)O1 [Example 36, 4,6-Di-t-butyl-2,2-di-n-pentyl-5-hydroxy-2,3-dihydrobenzofuran]
Count by Liquid Scintillation Counter, FBS Stimulation ([3H]-thymidine uptake) (100 μM, 2% FBS, uptake in 5 hours, control 42789 ± 1063, n = 3, mean ± SD): 14147 ± 1372 CPM | Count by Liquid Scintillation Counter, PDGF Stimulation ([3H]-thymidine uptake) (100 μM, PDGF-BB 4 ng/ml, uptake in 5 hours, control 24517 ± 2370, n = 3, mean ± SD): 7881 ± 356 CPM | Inhibitory effect compared with α-tocopherol (in words) ([3H]-thymidine uptake): higher than that of α-tocopherol | Inhibition of serum- or PDGF-stimulated proliferation of vascular smooth muscle cells (in words) ([3H]-thymidine uptake, 100 μM): inhibits serum- or PDGF-stimulated proliferation of vascular smooth muscle cells
